Test results taken from BindingDB's records for doi:10.1021/jm0101085 (University of North Carolina, 2001).

Assays:
Tubulin alpha-1A chain [1] = target: T1, Tubulin alpha-1A chain (Sus scrofa, UniProt P02550); assay: Inhibition of colchicine binding(ICB). [3H]colchicine concentration was 5 uM
Tubulin alpha-1A chain [2] = target: T1, Tubulin alpha-1A chain; assay: Inhibition of colchicine binding(ICB). Tubulin concentration was 1 uM
Tubulin alpha-1A chain [3] = target: T1, Tubulin alpha-1A chain; assay: Percent inhibition of colchicine binding(ICB) at 5 uM [3H]colchicine concentration

T1 sequence (P02550 whole entry, looked up): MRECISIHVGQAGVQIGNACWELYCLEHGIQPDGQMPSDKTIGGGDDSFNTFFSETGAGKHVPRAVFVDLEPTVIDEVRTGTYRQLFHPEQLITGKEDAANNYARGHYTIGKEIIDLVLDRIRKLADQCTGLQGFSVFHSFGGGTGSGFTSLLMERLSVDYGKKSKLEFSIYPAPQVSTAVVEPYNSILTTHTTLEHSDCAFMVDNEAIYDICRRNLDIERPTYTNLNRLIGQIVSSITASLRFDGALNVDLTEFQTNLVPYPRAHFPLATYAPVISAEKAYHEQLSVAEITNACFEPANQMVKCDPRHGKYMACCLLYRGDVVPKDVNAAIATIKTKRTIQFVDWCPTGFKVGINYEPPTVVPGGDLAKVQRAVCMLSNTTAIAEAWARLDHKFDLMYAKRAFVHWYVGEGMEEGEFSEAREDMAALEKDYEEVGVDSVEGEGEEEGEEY

Inhibition (Tubulin alpha-1A chain [1]) [%]	Inhibition (Tubulin alpha-1A chain [2]) [%]	Inhibition (Tubulin alpha-1A chain [3]) [%]	SMILES
93	76	–	Oc1cc(-c2ccccc2F)nc2ccc(N3CCCC3)cc12 [2-(2-fluorophenyl)-6-(pyrrolidin-1-yl)quinolin-4(1H)-one]
–	–	39	Oc1cc(-c2ccccc2F)nc2cc3c(cc12)OCO3 [2-(2-fluorophenyl)-6,7-methylenedioxyquinolin-4-one]
